Measurements taken from patent publication US20220008401A1, “COMPOSITIONS AND METHODS FOR TREATING PULMONARY DISEASE WITH MATRIX METALLOPROTEINASE INHIBITORS” (DARSHA LLC, priority 2019, published 2022).

Experiment: Lung and serum levels after nebulized Compound 1 in mice (mass spectroscopy)
Format: in vivo
Procedure: The compound was administered with a nebulizer of (FIG. 1A). With a 9 cc Medication Nebulizer, a dose of liquid medicine was prepared to a final concentration of 5 ml (3 mg/mL). Treatment was for approximately 20-30 minutes until all liquid was delivered. […] The nebulizer includes a Hospital grade Schuco air compressor 100, Blue top medication nebulizer 110, Plastic collar 120, White elbow hose connector 130, 7′ crush proof 02 tubing to air compressor 140, and MPC Aerosol Pie Cage 150. Technical Specifications of the nebulizing system were as follows:
The pie cage 150 has 12 slots to hold 12 mice.
10 mice were divided into three trial groups:
Low dose group: 3 mice at 2 mg dose (˜5 mg/kg) Medium dose group: 3 mice at 5 mg dose (˜12 mg/kg) High dose group: 4 mice at 10 mg dose (˜35 mg/kg)
The mice were nebulized within their respective dosing group for fifteen minutes (starting with the lowest dosing and moving up to the highest). One mouse was sacrificed per group at 1 hour, 3 hours and 5 hours after the drug delivery (2 mice were sacrificed for the 10 mg dose group).
[…] were collected during sacrifice: upper and lower left lung, right lung, and serum. The order of sample collection was: first blood, then left lung, then right lung. Before removing the right lung, but after removing the left lung, the right lung was lavaged. The lung samples were immediately placed into liquid nitrogen and the blood samples rested for 4 hours at room temperature. After the blood clotted it was centrifuged and the serum was taken into a new tube. Lung and serum samples were then analyzed by mass spectroscopy.

Which results are given for “butanamide, N-hydroxy-2-[[(4-hydroxyphenyl)sulfonyl](3-pyridinylmethyl)amino]-3-methyl, hydrochloride, (2R) [Compound 1]”?
Mouse Lung MMI 270 (High Dose (10 mg, ~35 mg/kg, nebulized), 1 hour later, Left Lung Lower Lobe): 1415.95 ng/g; Mouse Lung MMI 270 (High Dose (10 mg, ~35 mg/kg, nebulized), 1 hour later, Right Lung Lower Lobe): 598.24 ng/g; Mouse Serum MMI 270 (High Dose (10 mg, ~35 mg/kg, nebulized), 1 hour later): 87.99 ng/mL; Mouse Lung MMI 270 (High Dose (10 mg, ~35 mg/kg, nebulized), 3 hour later, Left Lung Lower Lobe): 119.51 ng/g; Mouse Lung MMI 270 (High Dose (10 mg, ~35 mg/kg, nebulized), 3 hour later, Right Lung Lower Lobe): 50.75 ng/g; Mouse Serum MMI 270 (High Dose (10 mg, ~35 mg/kg, nebulized), 3 hour later): 7.93 ng/mL; Mouse Lung MMI 270 (High Dose (10 mg, ~35 mg/kg, nebulized), 5 hour later, Left Lung Lower Lobe): 70.67 ng/g; Mouse Lung MMI 270 (High Dose (10 mg, ~35 mg/kg, nebulized), 5 hour later, Right Lung Lower Lobe): 23.36 ng/g; Mouse Serum MMI 270 (High Dose (10 mg, ~35 mg/kg, nebulized), 5 hour later): 3.79 ng/mL; Mouse Lung MMI 270 (Low Dose (2 mg, ~5 mg/kg, nebulized), 1 hour later, Left Lung Lower Lobe): 102.10 ng/g; Mouse Lung MMI 270 (Low Dose (2 mg, ~5 mg/kg, nebulized), 1 hour later, Right Lung Lower Lobe): 155.55 ng/g; Mouse Serum MMI 270 (Low Dose (2 mg, ~5 mg/kg, nebulized), 1 hour later): 2.97 ng/mL; Mouse Lung MMI 270 (Low Dose (2 mg, ~5 mg/kg, nebulized), 3 hour later, Left Lung Lower Lobe): 42.92 ng/g; Mouse Lung MMI 270 (Low Dose (2 mg, ~5 mg/kg, nebulized), 3 hour later, Right Lung Lower Lobe): 12.60 ng/g; Mouse Serum MMI 270 (Low Dose (2 mg, ~5 mg/kg, nebulized), 3 hour later): <LLOQ; Mouse Lung MMI 270 (Low Dose (2 mg, ~5 mg/kg, nebulized), 5 hour later, Left Lung Lower Lobe): 13.21 ng/g; Mouse Lung MMI 270 (Low Dose (2 mg, ~5 mg/kg, nebulized), 5 hour later, Right Lung Lower Lobe): <LLOQ; Mouse Serum MMI 270 (Low Dose (2 mg, ~5 mg/kg, nebulized), 5 hour later): <LLOQ; Mouse Lung MMI 270 (Medium Dose (5 mg, ~12 mg/kg, nebulized), 1 hour later, Left Lung Lower Lobe): 465.18 ng/g; Mouse Lung MMI 270 (Medium Dose (5 mg, ~12 mg/kg, nebulized), 1 hour later, Right Lung Lower Lobe): 127.68 ng/g; Mouse Serum MMI 270 (Medium Dose (5 mg, ~12 mg/kg, nebulized), 1 hour later): 20.06 ng/mL; Mouse Lung MMI 270 (Medium Dose (5 mg, ~12 mg/kg, nebulized), 3 hour later, Left Lung Lower Lobe): 49.60 ng/g; Mouse Lung MMI 270 (Medium Dose (5 mg, ~12 mg/kg, nebulized), 3 hour later, Right Lung Lower Lobe): 18.92 ng/g; Mouse Serum MMI 270 (Medium Dose (5 mg, ~12 mg/kg, nebulized), 3 hour later): 3.40 ng/mL; Mouse Lung MMI 270 (Medium Dose (5 mg, ~12 mg/kg, nebulized), 5 hour later, Left Lung Lower Lobe): 26.04 ng/g; Mouse Lung MMI 270 (Medium Dose (5 mg, ~12 mg/kg, nebulized), 5 hour later, Right Lung Lower Lobe): 13.55 ng/g; Mouse Serum MMI 270 (Medium Dose (5 mg, ~12 mg/kg, nebulized), 5 hour later): <LLOQ
